# Target: T1, DC-SIGN (Homo sapiens, UniProt Q9NNX6)
# T1 construct: host or cells: B-THP-1 (Raji B) cells, DC-SIGN+
# T1 sequence (Q9NNX6 1-404): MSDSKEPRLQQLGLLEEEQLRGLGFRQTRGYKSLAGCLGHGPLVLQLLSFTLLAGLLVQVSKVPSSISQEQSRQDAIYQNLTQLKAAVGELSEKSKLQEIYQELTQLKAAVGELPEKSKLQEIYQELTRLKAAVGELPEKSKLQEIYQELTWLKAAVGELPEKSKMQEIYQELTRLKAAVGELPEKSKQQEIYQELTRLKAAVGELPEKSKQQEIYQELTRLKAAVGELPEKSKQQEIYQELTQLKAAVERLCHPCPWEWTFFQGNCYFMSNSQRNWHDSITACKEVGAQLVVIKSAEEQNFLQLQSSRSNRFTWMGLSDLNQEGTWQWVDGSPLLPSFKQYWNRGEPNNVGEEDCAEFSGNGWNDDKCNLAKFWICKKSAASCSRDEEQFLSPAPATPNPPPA
# Assay: cell-based
structure (smiles),measurement,value
"CO[C@H]1O[C@H](CO)[C@@H](O)[C@H](O)[C@@H]1O [MeMan, methyl α-D-mannoside]",IC50,6.5 mM
